Results taken from patent US20020054941A1, “Methods and compositions to enhance tenderness and value of meat” (The Board of Regents of the University of Nebraska, priority 2000, published 2002).
Marks after values point to notes of the source that are not given here.

Key:
[1] = system: sternomandibularis beef muscles; test: pH of pre-rigor injected sectioned muscle; conditions: injection 10% of muscle weight, 200 mM (glucose, calcium chloride 300 mM)
Experimental: (§1) Pre-rigor beef muscle was sectioned and the sections were injected at approximately 1 hour post-mortem with a volume of treatment solution equal to 10% of the muscle weight. Objective color measurements were taken on pieces of each muscle section and the pieces were then frozen, powdered and stored at −80° C. for up to 10 days before testing pH and analyzing oxidation-reduction potential. Shear force was evaluated as described immediately above. Solutions used in this procedure were as follows: sodium citrate (200 mM), sodium acetate (200 mM), glucose (300 mM), calcium citrate (200 mM), calcium chloride (300 mM), injection with water, and no injection (control). The calcium citrate solution was prepared as a suspension using 0.25% carrageenan and 200 mM calcium citrate due to its insolubility in water. However, use of calcium citrate can be optimized by increasing solubility by means known in the art.

[2] = system: sternomandibularis beef muscles; test: Shear force of pre-rigor injected sectioned muscle; conditions: 200 mM (glucose, calcium chloride 300 mM)
Experimental: Pre-rigor beef muscle was sectioned into 100 g. samples at approximately 3 hours post-mortem. The pieces were injected with 10 mL of treatment solution followed by marination in the solution for 24 hours at 2° C. before testing pH and recording visual color of the muscle sections. For evaluation of shear force, samples were thawed, cooked, sliced (approximately 6 mm by 6 mm) and then cooled before readings were taken. The solutions used for this procedure were as described above for homogenized muscle.
as §1

[3] = system: semimembranosus beef muscles; test: Muscle pH, pre-rigor injection of whole muscle
Experimental: (§2) Experiment were conducted to test the effects of pre-rigor injection of several compounds. Effects of these compounds on pH, color, tenderness and other related traits of low-value beef cuts were investigated. Ten steers (22 to 24 mo of age, 515 to 676 kg live weight) were slaughtered according to current industry procedures. Pre-rigor semimembranosus (from the round), triceps brachii and supraspinatus muscles (from the chuck) were excised, after evisceration (approximately 1 hour post-mortem), from both sides of the carcass. Muscle sections were randomly assigned to the treatments: sodium citrate (NaC; 200 mM), sodium fluoride (NaF; 200 mM), sodium acetate (NaA; 200 mM), and calcium chloride (CaCl2; 300 mM). The control samples remained on the carcass at 2° C. for 24 hours to simulate commercial conditions. Following a cooling, control muscles were removed from each carcass (4 replicates), vacuum packaged and transferred to the holding cooler with the other cuts at 2° C. Calcium chloride treatment was included to be compared with the other treatments.
(§3) At 2 hours post-mortem, each muscle was injected with a volume equal to 8% of the muscle weight using a four-needle hand injector. The temperature of solutions were 4° C. Each muscle was individually treated (2% of solution was added to give a total of 10% of muscle weight) and tumbled in a 75-pound capacity tumbler (Röschermatic, Oshabrück, Germany) for 30 min to insure uniform distribution of the solution.
(§4) Samples of each muscle (approximately 100 g) were taken at 0 hour (before injection), 24, and 72 hours after injection for determination of pH, oxidation-reduction potential, glycogen content, R-values, NAD, and NADH. The samples were then immediately frozen in liquid nitrogen and stored at −80° C. until they were powdered and analyzed. Fresh muscle samples (approximately 20 g) were taken at 72 hours after injection and assayed immediately for water holding capacity and sarcomere length.
(§5) Duplicate pre-rigor samples (5 g) were weighed from powdered sample and homogenized (Polytron, Brinkman Instruments, New York, N.Y.) in 50 mL of 5 mM iodoacetic acid, 150 mM potassium chloride (pH 7.0, 24° C.) to stop glycolysis (Ahn et al., 1992). The pH of the suspension was measured with a general purpose electrode (Corning Glass Works, Corning, N.Y.) attached to an Orion Model SA 720 pH meter (Orion Research, Inc., Boston, Mass.). Post-rigor muscle pH was determined by homogenizing 5 g of sample in 50 mL of deionized water (Winger et al., 1979).

[4] = system: supraspinatus beef muscles; test: Muscle pH, pre-rigor injection of whole muscle
Experimental: as §2, §3, §4, §5

[5] = system: triceps brachii beef muscles; test: Muscle pH, pre-rigor injection of whole muscle; conditions: 200 mM, calcium chloride 300 mM
Experimental: as §2, §3, §4, §5

[6] = system: Infraspinatus (ISP) steaks; test: Consumer panel palatability ratings of steaks; set-up: species or system steers; conditions: for Flavor / Tenderness: ISP, 9-point hedonic scale
Experimental: (§6) Thoracic limbs from 14 steers were chilled on the carcass (controls) or removed within 2 hours post-mortem and pumped to 10% of muscle weight with water, 200 mM or 400 mM sodium citrate solutions. The injections were performed at various sites along the muscle. The control remained on the carcass. Muscle pH and temperature were measured immediately prior to pumping. Experimental and control muscles were chilled at 2° C. for 24 hours. Steaks (2.54 cm thick) were removed after 24 hours from the Infraspinatus, Supraspinatus and Triceps brachii muscles and were either frozen immediately or aged for another 6 days and then evaluated. A consumer panel evaluated palatability juiciness, tenderness, connective tissue amount, and flavor desirability) on Infraspinatus and Triceps brachii steaks using 9-point hedonic scales (1 being very undesirable and 9 being very desirable) for each trait. Warner-Bratzler shear force values were determined on 1.27 cm-diameter cores from steaks that were broiled to an internal temperature of 70° C.

[7] = system: Triceps brachii (TBR) steaks; test: Consumer panel palatability ratings of steaks; set-up: species or system steers; conditions: for Flavor / Tenderness: TBR, 9-point hedonic scale
Experimental: as §6

[8] = system: spoilage micro-organisms; test: Microbial stability (logarithmic microbiological growth); conditions: for Logarithmic Microbiological Growth Values, difference: difference day 5 - day 0
Experimental: as §6
There were no differences in initial microbial load among the treatments.

[9] = 24 h, 200 mM, calcium chloride 300 mM
[10] = 72 h, 200 mM, calcium chloride 300 mM
[11] = 400 mM, Infraspinatus, day 1 and day 7, P<0.10, data not shown
[12] = 400 mM, Triceps brachii, day 1 and day 7, P<0.10, data not shown

SMILES: O=C([O-])CC(O)(CC(=O)[O-])C(=O)[O-].[Na+].[Na+].[Na+] [Sodium citrate, sodium citrate]
- PH (0 h) ([1]; 0 h): 6.86
- pH, 72 h ([1]; 72 h): 5.77^bc
- Shear force, kg (72 h) [2]: 11.09^ab kg
- pH, 0 h ([3]; 0 h (before injection)): 6.68
- pH, 24 h [3, 9]: 5.97^a
- pH, 72 h [3, 10]: 5.78^b
- pH, 0 h ([4]; 0 h (before injection)): 6.73
- pH, 24 h [4, 9]: 6.04^b
- pH, 72 h [4, 10]: 5.86^b
- pH, 0 h ([5]; 0 h (before injection)): 6.71
- pH, 24 h ([5]; 24 h after injection): 5.97^a
- pH, 72 h ([5]; 72 h after injection): 5.72^b
- Flavor ([6]; 200 mM, d1): 5.33^a,b
- Tenderness ([6]; 200 mM, d1): 5.36^a,b
- Flavor ([6]; 200 mM, d7): 5.35^a
- Tenderness ([6]; 200 mM, d7): 5.68^a
- Flavor ([6]; 400 mM, d1): 5.49^a*
- Tenderness ([6]; 400 mM, d1): 5.67^a
- Flavor ([6]; 400 mM, d7): 5.41^a
- Tenderness ([6]; 400 mM, d7): 5.90^a
- Connective tissue amount rating vs controls [6, 11]: more desirable
- Juiciness rating vs controls [6, 11]: more desirable
- Flavor ([7]; 200 mM, d1): 5.23^a
- Tenderness ([7]; 200 mM, d1): 4.81^b
- Flavor ([7]; 200 mM, d7): 4.87^a
- Flavor ([7]; 400 mM, d1): 5.30^a*
- Tenderness ([7]; 400 mM, d1): 5.25^a
- Flavor ([7]; 400 mM, d7): 5.18^a
- Tenderness ([7]; 400 mM, d7): 5.48^a
- Connective tissue amount rating vs controls [7, 12]: more desirable
- Juiciness rating vs controls [7, 12]: more desirable
- Logarithmic Microbiological Growth Values ([8]; 200 mM, day 0): 2.58
- Logarithmic Microbiological Growth Values ([8]; 200 mM, day 5): 5.45^b
- Logarithmic Microbiological Growth Values, difference ([8]; 200 mM): 2.88^b
- Logarithmic Microbiological Growth Values ([8]; 400 mM, day 0): 2.72
- Logarithmic Microbiological Growth Values ([8]; 400 mM, day 5): 5.11^b
- Logarithmic Microbiological Growth Values, difference ([8]; 400 mM): no greater microbial growth than the control
- Logarithmic Microbiological Growth Values, difference ([8]; 400 mM, listed as NaCit): 2.40^a,b
